The values that follow come from patent US11345711B2, “8,9-dihydroimidazo[1,2-a]pyrimido[5,4-e]pyrimidin-5(6H)-ones” (IMPACT THERAPEUTICS (SHANGHAI), INC, priority 2016, dated 2022).

Where two headings read alike, the source gives them in different places.

Test [1] deals with Wee1 (h) (Homo sapiens, UniProt P30291). Nature of the test: Wee1 kinase (h) detection method, [γ-33P]-ATP filter assay. The settings on record: C 10 μm compound. The class given is biochemical.
The subject of test [2] is NCI-H1299 cells. In words: MTT based cell viability assay on NCI-H1299 cells. To be noted: Homo sapiens, read-out: IC50, growth inhibition of NCI-H1299 cells. The method, boiled down: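 NCI-H1299 cells (1000/well, settled overnight) were exposed for 3 d at 37 °C, 5% CO2, to an eight-point series of 10 μM to 0.01 μM plus DMSO blank, as prepared in DMSO (final DMSO 1‰). MTT (0.5 mg/mL, 4 h) was read at 552/630/690 nm. IC50 came from sigmoidal dose-response fits of survival.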

For test [3], the system named is LoVo cells. In words: MTT based cell viability assay on LoVo cells. The settings on record: Homo sapiens, LoVo, 72 h, 3 d, read-out: IC50, growth inhibition of LoVo cells. An outline of the steps:
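Inhibition of LoVo proliferation was derived as IC50 from a sigmoidal dose-response fit of cell survival. Readout was MTT (0.5 mg/mL, 4 h) with absorbance at 552/630/690 nm, after 3-day treatment at 37 °C. Eight-point series from 10 μM to 0.01 μM, DMSO control, 1% DMSO final.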

Test [4] concerns the target T1, human Wee1 (amino acids M291 to K575) (Homo sapiens, UniProt P30291).
T1 construct: host or cells: E. coli BL21 infected with T7 phage
Nature of the test: Wee1 dissociation constant (Kd), KINOMEscan KdELECT competitive binding test. To be noted: 11-point 3-fold dilution. On the procedure:
Determination of Wee1 Dissociation Constant (Kd)
The Wee1 dissociation constants (Kd) which measures the affinity of tested compound to Wee 1 have been determined in the KINOMEscan™ KdELECT Service at DiscoveRx. KINOMEscan™ assay is based on competitive binding test. The affinity index Kd for Wee1 is calculated by qPCR measurement of the compounds that compete with the immobilized ligand and bind to the enzyme activity center.
Wee1 kinase-tagged T7 phage strains were prepared in an E. coli BL21 strain. E. coli was grown to log-phase and infected with T7 phage and incubated with shaking at 32° C. until lysis. The lysates were centrifuged and filtered to remove cell debris. A partial length construct of human Wee1 (amino acids M291 to K575 based on reference sequence NP_003381.1) was expressed on the T7 phage coat. A short DNA sequence, embedded within the T7 phage genome, was used as amplicon for detection via qPCR. […]
Test compounds were prepared as 111× stocks in 100% DMSO. Kas were determined using an 11-point 3-fold compound dilution series with three DMSO control points. […] The kinase concentration in the eluates was measured by qPCR. qPCR reactions were assembled by adding 2.5 μL of kinase eluate to 7.5 μL of qPCR master mix containing 0.15 μM amplicon primers and 0.15 μM amplicon probe. […]
The constants (KdS) were calculated with a standard dose-response curve using the Hill equation: […]

T1 sequence (P30291 291-575): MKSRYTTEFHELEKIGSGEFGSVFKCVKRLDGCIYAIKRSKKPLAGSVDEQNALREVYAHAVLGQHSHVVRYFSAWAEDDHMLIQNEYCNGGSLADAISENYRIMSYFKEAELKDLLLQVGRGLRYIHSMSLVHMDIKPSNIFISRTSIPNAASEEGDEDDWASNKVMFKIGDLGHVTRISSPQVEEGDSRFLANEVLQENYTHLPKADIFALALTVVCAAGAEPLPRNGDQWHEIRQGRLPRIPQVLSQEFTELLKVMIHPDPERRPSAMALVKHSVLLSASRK
Sequence of Wee1 (h) (P30291 whole entry): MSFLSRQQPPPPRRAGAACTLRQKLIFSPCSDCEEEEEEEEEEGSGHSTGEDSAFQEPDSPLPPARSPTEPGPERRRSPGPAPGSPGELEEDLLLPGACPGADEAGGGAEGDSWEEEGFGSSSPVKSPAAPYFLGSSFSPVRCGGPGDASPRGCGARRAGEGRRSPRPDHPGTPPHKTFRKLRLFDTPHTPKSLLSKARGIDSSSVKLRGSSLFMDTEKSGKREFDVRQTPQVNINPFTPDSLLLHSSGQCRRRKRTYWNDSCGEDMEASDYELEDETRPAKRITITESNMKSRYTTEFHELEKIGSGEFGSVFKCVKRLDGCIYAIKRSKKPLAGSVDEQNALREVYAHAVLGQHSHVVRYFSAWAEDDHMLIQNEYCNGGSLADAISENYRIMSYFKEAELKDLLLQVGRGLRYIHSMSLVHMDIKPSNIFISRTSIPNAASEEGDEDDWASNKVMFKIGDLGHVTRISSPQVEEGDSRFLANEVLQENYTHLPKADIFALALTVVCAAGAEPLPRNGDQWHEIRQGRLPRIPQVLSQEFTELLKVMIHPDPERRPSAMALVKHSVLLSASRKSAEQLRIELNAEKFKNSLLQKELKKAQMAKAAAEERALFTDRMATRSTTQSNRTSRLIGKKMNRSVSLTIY

On to `CN1CCN(c2ccc(Nc3ncc4c(n3)N3CCN=C3N(c3ccccc3Cl)C4=O)cc2)CC1` [Example 1, 6-(2-chlorophenyl)-2-((4-(4-methylpiperazin-1-yl)phenyl)amino)-8,9-dihydroimidazo[1,2-a]pyrimido[5,4-e]pyrimidin-5(6H)-one], for which the “Inh. (%) of Wee1 kinase enzyme activity” value in test [1] was found to be 96%. For the same compound, the IC50 (usually the concentration at which inhibition is half-maximal) in test [2] (NCI-H1299 cells) was 1590 nM; in test [3] it was 3580 nM. Moreover, the Kd (in general, the concentration at which binding is half-saturated) in test [4] came to 250 nM.
Consider `CN1CCN(c2ccc(Nc3ncc4c(n3)N3CCN=C3N(c3c(F)cccc3Cl)C4=O)cc2)CC1` [Example 2, 6-(2-Chloro-6-fluorophenyl)-2-((4-(4-methylpiperazin-1-yl)phenyl)amino)-8,9-dihydroimidazo[1,2-a]pyrimido[5,4-e]pyrimidin-5(6H)-one], for which the “Inh. (%) of Wee1 kinase enzyme activity” value in test [1] amounted to 95%. The IC50 was 782 nM in test [2] (NCI-H1299, NCI-H1299 cells) and 425 nM in test [3]. Further, binding in test [4] was characterised by a dissociation constant (Kd) of 34 nM.
